# Earlier results in article PMC8513935.
# Assay: experimental, compiled by the authors from the literature (the ESI cites the sources)
# Conditions: 1,2-Dichloroethane, 25 C
row,Compound,"log K of transfer, gas to solvent"
1,O=C1CCCCC1,4.97 log10 K

# Same assay, conditions: 2-Methylpropan-1-ol, 25 C
row,Compound,"log K of transfer, gas to solvent"
1,Cc1cc(C)c(C)cc1C,4.77 log10 K

# Same assay, conditions: 2-Methylpropan-2-ol, 25 C
row,Compound,"log K of transfer, gas to solvent"
1,Cc1cc(C)c(C)cc1C,4.85 log10 K

# Same assay, conditions: 3-Methylbutan-1-ol, 25 C
row,Compound,"log K of transfer, gas to solvent"
1,Cc1cc(C)c(C)cc1C,4.86 log10 K

# Same assay, conditions: Benzene, 25 C
row,"log K of transfer, gas to solvent",Compound
1,1.25 log10 K,O

# Same assay, conditions: Butan-1-ol, 25 C
row,Compound,"log K of transfer, gas to solvent"
1,Cc1cc(C)c(C)cc1C,4.92 log10 K

# Same assay, conditions: Butan-2-ol, 25 C
row,Compound,"log K of transfer, gas to solvent"
1,Cc1cc(C)c(C)cc1C,4.85 log10 K

# Same assay, conditions: CCl4, 25 C
row,Compound,"log K of transfer, gas to solvent"
1,O,0.64 log10 K
2,O=C1CCCCC1,4.57 log10 K

# Same assay, conditions: Chloroform, 25 C
row,"log K of transfer, gas to solvent",Compound
1,1.54 log10 K,O

# Same assay, conditions: Cyclohexane, 25 C
row,"log K of transfer, gas to solvent",Compound
1,0.29 log10 K,O

# Same assay, conditions: Cyclohexanone, 25 C
row,Compound,"log K of transfer, gas to solvent"
1,O=C1CCCCC1,4.65 log10 K

# Same assay, conditions: Decan-1-ol, 25 C
row,Compound,"log K of transfer, gas to solvent"
1,Cc1cc(C)c(C)cc1C,5.01 log10 K

# Same assay, conditions: Di-n-butyl ether, 25 C
row,Compound,"log K of transfer, gas to solvent"
1,Cc1cc(C)c(C)cc1C,5.27 log10 K

# Same assay, conditions: Dichloromethane, 25 C
row,"log K of transfer, gas to solvent",Compound
1,1.94 log10 K,O

# Same assay, conditions: Diethyl Ether, 25 C
row,Compound,"log K of transfer, gas to solvent"
1,Cc1cc(C)c(C)cc1C,5.38 log10 K

# Same assay, conditions: Ethanol, 25 C
row,Compound,"log K of transfer, gas to solvent"
1,O,3.72 log10 K
2,Cc1cc(C)c(C)cc1C,4.72 log10 K

# Same assay, conditions: Heptan-1-ol, 25 C
row,Compound,"log K of transfer, gas to solvent"
1,Cc1cc(C)c(C)cc1C,4.97 log10 K

# Same assay, conditions: Hexadecane, 25 C
row,Compound,"log K of transfer, gas to solvent"
1,O,0.245 log10 K
2,Cc1cc(C)c(C)cc1C,5.03 log10 K
3,O=C1CCCCC1,3.79 log10 K
4,CC(C)c1ccccc1,4.08 log10 K

# Same assay, conditions: Hexan-1-ol, 25 C
row,Compound,"log K of transfer, gas to solvent"
1,Cc1cc(C)c(C)cc1C,4.95 log10 K

# Same assay, conditions: Hexane, 25 C
row,Compound,"log K of transfer, gas to solvent"
1,O,0.54 log10 K
2,Cc1cc(C)c(C)cc1C,5.31 log10 K
3,O=C1CCCCC1,3.65 log10 K

# Same assay, conditions: Methanol, 25 C
row,"log K of transfer, gas to solvent",Compound
1,4.07 log10 K,O
2,3.8 log10 K,CC(C)c1ccccc1

row,Compound,"log K of transfer, gas to solvent"
1,Cc1cc(C)c(C)cc1C,4.52 log10 K

# Same assay, conditions: Octan-1-ol, 25 C
row,"log K of transfer, gas to solvent",Compound
1,3.98 log10 K,CC(C)c1ccccc1

# Same assay, conditions: Pentan-1-ol, 25 C
row,Compound,"log K of transfer, gas to solvent"
1,Cc1cc(C)c(C)cc1C,4.92 log10 K

# Same assay, conditions: Perfluoroalkane, 25 C
row,"log K of transfer, gas to solvent",Compound
1,0.33 log10 K,O

# Same assay, conditions: Propan-1-ol, 25 C
row,Compound,"log K of transfer, gas to solvent"
1,Cc1cc(C)c(C)cc1C,4.79 log10 K

# Same assay, conditions: Propan-2-ol, 25 C
row,"log K of transfer, gas to solvent",Compound
1,3.41 log10 K,O
2,3.79 log10 K,CC(C)c1ccccc1

row,Compound,"log K of transfer, gas to solvent"
1,Cc1cc(C)c(C)cc1C,4.75 log10 K

# Same assay, conditions: Propanone, 25 C
row,"log K of transfer, gas to solvent",Compound
1,3.22 log10 K,O
2,4.32 log10 K,CC(C)c1ccccc1

# Same assay, conditions: Tetrahydrofuran, 25 C
row,"log K of transfer, gas to solvent",Compound
1,2.91 log10 K,O
2,4.77 log10 K,CC(C)c1ccccc1

# Same assay, conditions: Toluene, 25 C
row,"log K of transfer, gas to solvent",Compound
1,1.24 log10 K,O

# Same assay, conditions: Water, 25 C
row,Compound,"log K of transfer, gas to solvent"
1,O,4.69 log10 K
2,Cc1cc(C)c(C)cc1C,0.53 log10 K
3,O=C1CCCCC1,3.6 log10 K
4,CC(C)c1ccccc1,0.22 log10 K

# Assay: derived by the authors as gas->solvent minus gas->water (a hypothetical dry solvent; the ESI), not a two-phase measurement
# Conditions: 1,2-Dichloroethane, 25 C
row,Compound,"log K of transfer, water to solvent"
1,O=C1CCCCC1,1.37 log10 K

# Same assay, conditions: 2-Methylpropan-1-ol, 25 C
row,Compound,"log K of transfer, water to solvent"
1,Cc1cc(C)c(C)cc1C,4.24 log10 K

# Same assay, conditions: 2-Methylpropan-2-ol, 25 C
row,Compound,"log K of transfer, water to solvent"
1,Cc1cc(C)c(C)cc1C,4.32 log10 K

# Same assay, conditions: 3-Methylbutan-1-ol, 25 C
row,Compound,"log K of transfer, water to solvent"
1,Cc1cc(C)c(C)cc1C,4.33 log10 K

# Same assay, conditions: Acetone, 25 C
row,"log K of transfer, water to solvent",Compound
1,-1.47 log10 K,O
2,4.1 log10 K,CC(C)c1ccccc1

# Same assay, conditions: Benzene, 25 C
row,"log K of transfer, water to solvent",Compound
1,-3.44 log10 K,O

# Same assay, conditions: Butan-1-ol, 25 C
row,Compound,"log K of transfer, water to solvent"
1,Cc1cc(C)c(C)cc1C,4.39 log10 K

# Same assay, conditions: Butan-2-ol, 25 C
row,Compound,"log K of transfer, water to solvent"
1,Cc1cc(C)c(C)cc1C,4.32 log10 K

# Same assay, conditions: CCl4, 25 C
row,Compound,"log K of transfer, water to solvent"
1,O,-4.05 log10 K
2,O=C1CCCCC1,0.97 log10 K

# Same assay, conditions: Chloroform, 25 C
row,"log K of transfer, water to solvent",Compound
1,-3.15 log10 K,O

# Same assay, conditions: Cyclohexane, 25 C
row,"log K of transfer, water to solvent",Compound
1,-4.4 log10 K,O

# Same assay, conditions: Cyclohexanone, 25 C
row,Compound,"log K of transfer, water to solvent"
1,O=C1CCCCC1,1.05 log10 K

# Same assay, conditions: Decan-1-ol, 25 C
row,Compound,"log K of transfer, water to solvent"
1,Cc1cc(C)c(C)cc1C,4.48 log10 K

# Same assay, conditions: Di-n-butyl ether, 25 C
row,Compound,"log K of transfer, water to solvent"
1,Cc1cc(C)c(C)cc1C,4.74 log10 K

# Same assay, conditions: Dichloromethane, 25 C
row,"log K of transfer, water to solvent",Compound
1,-2.75 log10 K,O

# Same assay, conditions: Diethyl Ether, 25 C
row,Compound,"log K of transfer, water to solvent"
1,Cc1cc(C)c(C)cc1C,4.85 log10 K

# Same assay, conditions: Ethanol, 25 C
row,Compound,"log K of transfer, water to solvent"
1,O,-0.97 log10 K
2,Cc1cc(C)c(C)cc1C,4.19 log10 K

# Same assay, conditions: Heptan-1-ol, 25 C
row,Compound,"log K of transfer, water to solvent"
1,Cc1cc(C)c(C)cc1C,4.44 log10 K

# Same assay, conditions: Hexadecane, 25 C
row,Compound,"log K of transfer, water to solvent"
1,O,-4.44 log10 K
2,Cc1cc(C)c(C)cc1C,4.5 log10 K
3,O=C1CCCCC1,0.192 log10 K
4,CC(C)c1ccccc1,3.86 log10 K

# Same assay, conditions: Hexan-1-ol, 25 C
row,Compound,"log K of transfer, water to solvent"
1,Cc1cc(C)c(C)cc1C,4.42 log10 K

# Same assay, conditions: Hexane, 25 C
row,Compound,"log K of transfer, water to solvent"
1,O,-4.15 log10 K
2,Cc1cc(C)c(C)cc1C,4.78 log10 K
3,O=C1CCCCC1,0.05 log10 K

# Same assay, conditions: Methanol, 25 C
row,"log K of transfer, water to solvent",Compound
1,-0.62 log10 K,O
2,3.58 log10 K,CC(C)c1ccccc1

row,Compound,"log K of transfer, water to solvent"
1,Cc1cc(C)c(C)cc1C,3.99 log10 K

# Same assay, conditions: Octan-1-ol(dry), 25 C
row,"log K of transfer, water to solvent",Compound
1,3.76 log10 K,CC(C)c1ccccc1

# Same assay, conditions: Pentan-1-ol, 25 C
row,Compound,"log K of transfer, water to solvent"
1,Cc1cc(C)c(C)cc1C,4.39 log10 K

# Same assay, conditions: Perfluoroalkane, 25 C
row,"log K of transfer, water to solvent",Compound
1,-4.36 log10 K,O

# Same assay, conditions: Propan-1-ol, 25 C
row,Compound,"log K of transfer, water to solvent"
1,Cc1cc(C)c(C)cc1C,4.26 log10 K

# Same assay, conditions: Propan-2-ol, 25 C
row,"log K of transfer, water to solvent",Compound
1,-1.28 log10 K,O
2,3.57 log10 K,CC(C)c1ccccc1

row,Compound,"log K of transfer, water to solvent"
1,Cc1cc(C)c(C)cc1C,4.22 log10 K

# Same assay, conditions: Tetrahydrofuran, 25 C
row,"log K of transfer, water to solvent",Compound
1,-1.78 log10 K,O
2,4.55 log10 K,CC(C)c1ccccc1

# Same assay, conditions: Toluene, 25 C
row,"log K of transfer, water to solvent",Compound
1,-3.45 log10 K,O

# Assay: log P octanol/water from commercial databases, averaged (the ESI)
# Conditions: Octanol (wet), 25 C
row,Compound,"log K of transfer, water to solvent"
1,O,-1.38 log10 K
2,Cc1cc(C)c(C)cc1C,4.1 log10 K
3,O=C1CCCCC1,0.81 log10 K
4,CC(C)c1ccccc1,3.66 log10 K
